Data as given in patent publication US20260021061A1, “ARIADNE AND ANALOGS FOR THE TREATMENT OF NEUROLOGICAL AND NEUROMUSCLAR DISORDERS” (priority 2022, published 2026).
Counter-ions that a name gives are not always drawn. Like-named read-outs stand apart in the source and are kept apart here.

Key:
5-HT2A [1] = target: T1, 5-HT2A (Homo sapiens, UniProt P28223); test: IP1 agonism (IP1 formation assay), Cerep, Eurofins; format: cell-based; parameters: purchased Cerep, Eurofins (contract assay); settings: duplicate averages only
From the text: (§1) FIGS. 8A-B Comparison of 5-HT2A (a) and 5-HT2B (b) receptor in IP1 formation assay for selected compounds, performed at Cerep, Eurofins.
(§2) IP1 agonism summary for selected compounds (duplicate averages only), performed at Cerep, Eurofins.

5-HT2B [2] = target: T2, 5-HT2B (Homo sapiens, UniProt P41595); test: IP1 agonism (IP1 formation assay), Cerep, Eurofins; format: cell-based; parameters: purchased Cerep, Eurofins (contract assay); settings: duplicate averages only
From the text: as §1, §2

C57BL/6J mice [3] = test: Open field locomotion in mice; format: in vivo, mouse
C57BL/6J mice [4] = test: Head twitch response (HTR) in mice; format: in vivo, mouse; settings: s.c.
Procedure: All samples were prepared the same day testing was performed. Solids were weighed into small vials and dissolved in USP grade 0.85% saline with addition of 2 molar equivalents of glacial acetic acid. Sonication and gentle heating were applied until complete dissolution. The compounds were subsequently filtered through 0.45 μm filters into a new glass vial. All compounds were administered at a 1 mg/kg subcutaneous dose at a volume of 10 mL/kg of body weight. Volinanserin hydrochloride salt (MDL 100907) was purchased from Toronto Research Chemicals.
All experimental procedures involving animals were approved by an Institutional Animal Care and Use Committee (IACUC) and adhered to principles described in the National Institutes of Health Guide for the Care and Use of Laboratory Animals. The studies were conducted at AAALAC accredited facilities. Animals received regular veterinary care (weekly by institutional veterinarians) including daily health monitoring (by experimenters) of the animals (observing home cage behaviors, nesting, and body weight). All procedures were designed to minimize any stress/distress. Healthy adult male mice C57BL/6J (8-12 weeks, 26-33 g) were purchased from the Jackson Laboratory (Bar Harbor, ME) and housed 5 mice per cage with food and water available ad libitum. Mice were maintained on a 12-h light/dark cycle (lights on 7:00-19:00) and all testing was done in the light cycle. Temperature was kept constant at 22±2° C., and relative humidity was maintained at 50±5%
The head-twitch response evaluation was performed by a trained observer who was blinded to both drug and dose. Mice were moved to the testing room 30 min before the experiment to allow for acclimation. The body weight of each mouse was recorded. Mice were administered either a 1, 3, 10, or 30 mg/kg s.c. dose of compound solution (volume of injection 260-330 μL based on body weight). […] The total number of head-twitches over the 15 minute period were recorded. Five mice were used per dose.
DOI was tested at the doses of 0.3, 1, 3, and 10 mg/kg (s.c., 5 mice per dose) and testing began immediately after administration of the compound. Ariadne was tested at the doses of 1, 3, 10, and 30 mg/kg (s.c., 5 mice per dose) and there was a 10 min interval between treatment and testing.

5-HT2C receptor = target: T3, 5-HT2C receptor (Homo sapiens, UniProt P28335); test: G protein (Gq) dissociation BRET assay; settings: read-out: Emax/Gq
T3 sequence (P28335 33-458): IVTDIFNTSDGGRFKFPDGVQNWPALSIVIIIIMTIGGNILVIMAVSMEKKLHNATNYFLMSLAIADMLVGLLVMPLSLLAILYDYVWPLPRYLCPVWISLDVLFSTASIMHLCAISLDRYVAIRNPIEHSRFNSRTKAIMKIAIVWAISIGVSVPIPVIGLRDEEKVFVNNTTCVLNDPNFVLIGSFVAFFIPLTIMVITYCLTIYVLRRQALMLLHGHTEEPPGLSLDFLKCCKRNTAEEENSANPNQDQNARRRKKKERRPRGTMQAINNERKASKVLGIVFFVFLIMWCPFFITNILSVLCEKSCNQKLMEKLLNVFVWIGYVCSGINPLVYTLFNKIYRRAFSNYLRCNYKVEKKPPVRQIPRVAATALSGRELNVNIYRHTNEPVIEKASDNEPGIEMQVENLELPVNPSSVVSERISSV
Procedure: (§3) All BRET assays were conducted using BRET2 in HEK293T cells (ATCC CRL-11268; mycoplasma-free), which were subcultured in high-glucose DMEM (VWR) supplemented with 10% FBS (Life Technologies).
(§4) Constructs in G protein-dissociation BRET assays were derived from the codon-optimized Tango pcDNA3.1 library (Addgene) with V2tail/TEV/tTA encoding regions deleted to yield “de-Tango” constructs. […] All Gα-Rluc8, Beta, and GFP2-γ constructs were derived from the TRUPATH pcDNA5/FRT/TO library (Addgene).
(§5) Approximately 48 hours before assays, cells were transfected using a reverse transfection method and plated in 1% dFBS at an approximate density of 15,000 cells per well into poly-L-lysine-coated 384-well white assay plates (Grenier Bio-One). For G protein-dissociation assays, cells were transfected in a 1:1:1:1 ratio of receptor: Gα-Rluc8: Beta: GFP2-γ constructs. […] All transfections were prepared in Opti-MEM (Invitrogen) and used a 3:1 ratio of TransIT-2020 (Mirus) uL:ug total DNA.
(§6) On the day of the assay, plates were decanted and 20 uL of drug buffer per well (1×HBSS, 20 mM HEPES, pH 7.4) was added using a Multidrop (ThermoFisher Scientific), and plates were allowed to equilibrate at 37° C. in a humidified incubator before receiving drug stimulation. Drug dilutions of all compounds were performed in McCorvy buffer (1×HBSS, 20 mM HEPES, pH 7.4, supplemented with 0.3% BSA fatty acid free (GoldBio), and 0.03% ascorbic acid). […] Next, plates were incubated at 37° C. in a humidified incubator for 60 minutes or specified time point. Before reading, addition of coelenterazine 400a (5 uM final concentration; Nanolight Technology) was performed by the [sequence]. Immediately after, plates were read at 400 nm Rluc and fluorescent GFP2 emission at 510 nm for BRET2 at 0.8 second per well using a PheraStarFSX (BMB Lab Tech).
(§7) The BRET ratios of 510/400 luminescence were calculated per well and were plotted as a function of drug concentration using Graphpad Prism 5 or 9 (Graphpad Software Inc., San Diego, CA). Data were normalized to % positive control stimulation and analyzed using nonlinear regression “log(agonist) vs. response” to yield Emax and EC50 parameter estimates.

5-HT2A [5] = target: T1, 5-HT2A; test: G protein (Gq) dissociation BRET assay; format: cell-based; parameters: host or cells: HEK293T (ATCC CRL-11268)
5-HT2B [6] = target: T2, 5-HT2B; test: G protein (Gq) dissociation BRET assay
Procedure: as §3, §4, §5, §6, §7

5-HT2A [7] = target: T1, 5-HT2A; test: Radioligand displacement assay; format: binding
Procedure: Therefore, an orthogonal assay measuring calcium flux was also performed for the 5-HT2 receptors (Klein et al., 2020).

humans = settings: per oral administration; cited from earlier work
[8] = EC50 (5-HT2A) (M), Table 7, IP1 agonism
[9] = EC50 (5-HT2B) (M), Table 7, IP1 agonism

T2 sequence (P41595 whole entry): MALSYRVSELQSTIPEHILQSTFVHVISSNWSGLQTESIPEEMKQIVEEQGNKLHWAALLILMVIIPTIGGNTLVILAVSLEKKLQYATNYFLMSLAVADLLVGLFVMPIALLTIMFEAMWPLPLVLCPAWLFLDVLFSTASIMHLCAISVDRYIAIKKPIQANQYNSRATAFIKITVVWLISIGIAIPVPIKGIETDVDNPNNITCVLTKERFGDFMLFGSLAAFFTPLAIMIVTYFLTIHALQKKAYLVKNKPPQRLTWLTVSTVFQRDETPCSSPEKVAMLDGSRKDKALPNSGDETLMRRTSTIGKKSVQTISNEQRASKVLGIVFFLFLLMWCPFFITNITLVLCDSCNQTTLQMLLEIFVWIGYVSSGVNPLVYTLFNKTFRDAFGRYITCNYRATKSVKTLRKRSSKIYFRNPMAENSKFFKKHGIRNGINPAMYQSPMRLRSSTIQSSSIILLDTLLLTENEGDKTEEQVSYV
T1 sequence (P28223 whole entry): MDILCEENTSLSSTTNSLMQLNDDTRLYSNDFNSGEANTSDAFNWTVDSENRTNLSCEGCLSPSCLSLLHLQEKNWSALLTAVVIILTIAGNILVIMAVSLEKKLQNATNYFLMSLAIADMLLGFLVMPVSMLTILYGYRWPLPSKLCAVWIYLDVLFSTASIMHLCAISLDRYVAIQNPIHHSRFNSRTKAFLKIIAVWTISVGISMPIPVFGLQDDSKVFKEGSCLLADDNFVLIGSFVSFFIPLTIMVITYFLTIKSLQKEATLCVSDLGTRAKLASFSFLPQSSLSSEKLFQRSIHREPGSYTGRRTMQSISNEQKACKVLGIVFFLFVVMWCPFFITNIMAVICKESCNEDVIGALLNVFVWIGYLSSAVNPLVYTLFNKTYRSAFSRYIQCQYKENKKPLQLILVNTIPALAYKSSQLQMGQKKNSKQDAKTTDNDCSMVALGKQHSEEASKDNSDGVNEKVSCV

CCC(N)Cc1cc(OC)c(C(F)(F)CC)cc1OC (centres unmarked) [Compound 53, 1-(4-(1,1-difluoropropyl)-2,5-dimethoxyphenyl)butan-2-amine]
EC50 (5-HT2A [1]; [8]): 5.7e-08 M
EC50 (5-HT2B [2]; [9]): 1.9e-07 M

CCC(N)Cc1cc(OC)c(C2CC2)cc1OC (centres unmarked) [Compound 30, 1-(4-cyclopropyl-2,5-dimethoxyphenyl)butan-2-amine]
EC50 (5-HT2A [1]; 5-HT2a (IP1 agonism), Table 2): 3.7e-06 M

CCC(N)Cc1c(OC)cc(C)cc1OC (centres unmarked) [Compound 40, 1-(2,6-dimethoxy-4-methylphenyl)butan-2-amine]
EC50 (5-HT2A [1]; 5-HT2a (IP1 agonism), Table 2): 1e-05 M

CCOc1cc(CC(N)CC)c(OC)cc1C(F)(F)F (centres unmarked) [Compound 36, 1-(5-ethoxy-2-methoxy-4-(trifluoromethyl)phenyl)butan-2-amine]
EC50 (5-HT2A [1]; 5-HT2a (IP1 agonism), Table 2): 2.8e-07 M
EC50 (5-HT2B [2]; 5-HT2b (IP1 agonism), Table 2): 9.5e-07 M

CCC(N)Cc1cc(OC)c(C(C)(F)F)cc1OC (centres unmarked) [Compound 50, 1-(4-(1,1-difluoroethyl)-2,5-dimethoxyphenyl)butan-2-amine]
EC50 (5-HT2A [1]; [8]): 2.5e-08 M
EC50 (5-HT2B [2]; [9]): 1.1e-07 M

CCc1cc(OC)c(CC(N)CC)cc1OC (centres unmarked) [Compound 35, 1-(4-ethyl-2,5-dimethoxyphenyl)butan-2-amine]
EC50 (5-HT2A [1]; 5-HT2a (IP1 agonism), Table 2): 1.9e-06 M
EC50 (5-HT2B [2]; 5-HT2b (IP1 agonism), Table 2): 5.7e-07 M

CCC(N)Cc1cc(OC)c(Cl)cc1OC (centres unmarked) [Compound 41, 1-(4-chloro-2,5-dimethoxyphenyl)butan-2-amine]
EC50 (5-HT2A [1]; 5-HT2a (IP1 agonism), Table 2): 1.9e-07 M
EC50 (5-HT2B [2]; 5-HT2b (IP1 agonism), Table 2): 1.4e-05 M

CCC(N)Cc1cc(OC)c(Br)cc1OC (centres unmarked) [Compound 31, 1-(4-bromo-2,5-dimethoxyphenyl)butan-2-amine]
EC50 (5-HT2A [1]; 5-HT2a (IP1 agonism), Table 2): 9e-08 M
EC50 (5-HT2B [2]; 5-HT2b (IP1 agonism), Table 2): 5.5e-06 M

COc1cc(CC(N)C2CC2)c(OC)cc1C (centres unmarked) [Compound 38, 1-cyclopropyl-2-(2,5-dimethoxy-4-methylphenyl)ethan-1-amine]
EC50 (5-HT2A [1]; Table 2, read-out: 5-HT2a (IP1 agonism)): 9.7e-06 M
EC50 (5-HT2B [2]; Table 2, read-out: 5-HT2b (IP1 agonism)): 2.1e-05 M

CCCc1cc(OC)c(CC(C)N)cc1OC (racemic) [Compound 44, 1-(2,5-dimethoxy-4-propylphenyl) propan-2-amine, reference compound]
time in the center of the arena (C57BL/6J mice [3]; open field): trend for spending less time in the center
effects on locomotion (C57BL/6J mice [3]; s.c., trending toward increased locomotion at HTR peak dose (1 mg/kg)): minor to no effects on locomotion
HTR response (C57BL/6J mice [4]): robust dose-dependent HTR response
dose of maximum (peak) HTR (C57BL/6J mice [4]): 1 mg/kg
time to maximum HTR frequency post-drug administration (C57BL/6J mice [4]): 10 min

CCSc1cc(OC)c(CC(N)CC)cc1OC (centres unmarked) [Compound 27, 1-(4-(ethylthio)-2,5-dimethoxyphenyl)butan-2-amine]
EC50 (5-HT2A [1]; 5-HT2a (IP1 agonism), Table 2): 5.3e-08 M
EC50 (5-HT2B [2]; 5-HT2b (IP1 agonism), Table 2): 6.3e-07 M

CCC(N)Cc1cc(OC)c(S(C)(=O)=O)cc1OC (centres unmarked) [Compound 33, 1-(2,5-dimethoxy-4-(methylsulfonyl)phenyl)butan-2-amine trifluoroacetate]
EC50 (5-HT2A [1]; 5-HT2a (IP1 agonism), Table 2): 3.4e-06 M
EC50 (5-HT2B [2]; 5-HT2b (IP1 agonism), Table 2): 2.5e-05 M

CCC(N)Cc1cc(OC)c(COC)cc1OC (centres unmarked) [Compound 37, 1-(2,5-dimethoxy-4-(methoxymethyl)phenyl)butan-2-amine]
Emax (5-HT2C receptor): 82%
less potent at 5-HT2A compared to Ariadne (5-HT2A [5]; Gq dissociation): approximately 2 fold
Emax (5-HT2A [5]; Gq dissociation BRET, normalized to 5-HT, read-out: Emax (Emax/Gq) relative to 5-HT): 78%
HTR response (C57BL/6J mice [4]): only residual HTR
potency at 5-HT2B compared to Ariadne (5-HT2B [6]; Gq dissociation): twice as potent
Emax (5-HT2B [6]; read-out: Emax/Gq): 43%

CCCc1cc(OC)c(CC(N)CC)cc1OC (centres unmarked) [Compound 42, 1-(2,5-dimethoxy-4-propylphenyl)butan-2-amine]
EC50 (5-HT2A [1]; 5-HT2a (IP1 agonism), Table 2): 2.1e-07 M

CC[C@H](N)Cc1cc(OC)c(C)cc1OC [(S)-Ariadne]
Ki (5-HT2A [7]): 220 nM

CCCC(N)Cc1cc(OC)c(C)cc1OC (centres unmarked) [Compound 39, 1-(2,5-dimethoxy-4-methylphenyl) pentan-2-amine]
EC50 (5-HT2B [2]; 5-HT2b (IP1 agonism), Table 2): 2.3e-05 M
HTR response (C57BL/6J mice [4]): indistinguishable from vehicle

CCC(N)Cc1cc(OC)c(CC(C)(F)F)cc1OC (centres unmarked) [Compound 58, 1-(4-(2,2-difluoropropyl)-2,5-dimethoxyphenyl)butan-2-amine]
EC50 (5-HT2A [1]; [8]): 4.3e-06 M

CCC(N)Cc1cc(OC)c(I)cc1OC (centres unmarked) [Compound 34, 1-(4-iodo-2,5-dimethoxyphenyl)butan-2-amine]
EC50 (5-HT2A [5]; EC50 (EC50/Gq), Gq dissociation, Gq dissociation BRET): 16 nM
increase in Gq potency compared to Ariadne (5-HT2A [5]; EC50/Gq comparison): > 10 fold
EC50 (5-HT2A [1]; 5-HT2a (IP1 agonism), Table 2): 9.7e-06 M
EC50 (5-HT2B [2]; 5-HT2b (IP1 agonism), Table 2): 1.8e-05 M

COc1cc(CC(C)N)c(OC)cc1C (centres unmarked) [DOM, 2,5 Dimethoxy-4-methylamphetamine, reference compound]
potency in humans relative to mescaline (humans): approximately 100 times

CCC(N)Cc1cc(OC)c(SC)cc1OC (centres unmarked) [Compound 28, 1-(2,5-dimethoxy-4-(methylthio)phenyl)butan-2-amine]
EC50 (5-HT2A [1]; 5-HT2a (IP1 agonism), Table 2): 1.6e-07 M
EC50 (5-HT2B [2]; 5-HT2b (IP1 agonism), Table 2): 6.6e-08 M

CCC(N)Cc1cc(OC)c(C#N)cc1OC (centres unmarked) [Compound 4, 4-(2-aminobutyl)-2,5-dimethoxybenzonitrile trifluoroacetate]
EC50 (5-HT2A [1]; 5-HT2a (IP1 agonism), Table 2): 1.1e-05 M
